Common to all, as to conditions: bmdc
Data set [1] is described as follows: Antiinflammatory activity in wild-type C57BL/6 mouse BMDCs assessed as inhibition of IL-12 p40 production incubated for 1 hr prior to LPS challenge measured after 16 hrs by ELISA. The class given is functional. A general note: In an ELISA, binding on a coated surface is turned into a signal by an enzyme label.
Data set [2] is described as follows: Cytotoxicity against wild-type C57BL/6 mouse BMDCs assessed as cell viability by MTT assay.
The nature of data set [3]: Antiinflammatory activity in wild-type C57BL/6 mouse BMDCs assessed as inhibition of TNFalpha production incubated for 1 hr prior to LPS challenge measured after 16 hrs by ELISA. In kind it is functional.
Data set [4] is described as follows: Antiinflammatory activity in wild-type C57BL/6 mouse BMDCs assessed as inhibition of IL-6 production incubated for 1 hr prior to LPS challenge measured after 16 hrs by ELISA. The class given is functional.

The values that follow come from ChEMBL document CHEMBL2331172, “Pyrrole and furan oligoglycosides from the starfish Asterina batheri and their inhibitory effect on the production of pro-inflammatory cytokines in lipopolysaccharide-stimulated bone marrow-derived dendritic cells” (Bioorg Med Chem Lett, 2013).

SMILES strings stand for the structures.

Consider `CC(=O)c1[nH]ccc1O[C@@H]1O[C@H](C)[C@@H](O[C@H]2OC[C@H](O)[C@H](O)[C@H]2O[C@@H]2O[C@H](C)[C@H](O)[C@H](O[C@@H]3O[C@@H](CO)[C@H](O)[C@H]3O)[C@H]2O)[C@H](O)[C@H]1O[C@@H]1O[C@H](C)[C@@H](O)[C@H](O)[C@H]1O` [ASTEBATHERIOSIDE B], for which, in data set [1], the IC50 (as a rule, the concentration that gives 50% inhibition) stood at 36.4 µM. For the same compound, the Activity result in data set [2] is listed as “Non-toxic”.

For the compound `CC(=O)c1[nH]ccc1O[C@@H]1O[C@H](C)[C@@H](O[C@@H]2O[C@H](C)[C@H](O)[C@H](O[C@@H]3O[C@H](C)[C@H](O)[C@H](O)[C@H]3O)[C@H]2O)[C@H](O)[C@H]1O[C@@H]1O[C@H](C)[C@@H](O)[C@H](O)[C@H]1O`, the IC50 in data set [3], in data set [4] and in data set [1] was > 50 µM each time. In data set [2], the Activity entry is reported as “Non-toxic”.

Regarding `CC(=O)c1[nH]ccc1O[C@@H]1O[C@H](C)[C@@H](O)[C@H](O)[C@H]1O[C@@H]1O[C@H](C)[C@@H](O)[C@H](O)[C@H]1O` [ASTEBATHERIOSIDE C], the IC50 in data set [1] was found to be 31.6 µM. For the same compound, the Activity result in data set [2] is listed as “Non-toxic”.

As for `C[S+]([O-])c1ccc(-c2nc(-c3ccc(F)cc3)c(-c3ccncc3)[nH]2)cc1` (stereo not given) [SB-203580], the IC50 in data set [1] amounted to 5 µM.

Take `CC(=O)c1[nH]ccc1O[C@@H]1O[C@H](C)[C@@H](O[C@@H]2O[C@H](C)[C@H](O)[C@H](O[C@@H]3O[C@H](C)[C@H](O)[C@H](O[C@@H]4O[C@@H](CO)[C@H](O)[C@H]4O)[C@H]3O)[C@H]2O)[C@H](O)[C@H]1O[C@@H]1O[C@H](C)[C@@H](O)[C@H](O)[C@H]1O` [ASTEBATHERIOSIDE A]: the IC50 in data set [3], in data set [4] and in data set [1] was > 50 µM each time. Besides, in data set [2], the Activity entry is on record as “Non-toxic”.

As for `CC(=O)c1occc1O[C@@H]1O[C@H](C)[C@@H](O[C@@H]2O[C@H](C)[C@H](O)[C@H](O[C@@H]3O[C@H](C)[C@H](O)[C@H](O)[C@H]3O)[C@H]2O)[C@H](O)[C@H]1O[C@@H]1O[C@H](C)[C@@H](O)[C@H](O)[C@H]1O` [ASTEBATHERIOSIDE D], the IC50 in data set [1] came out at 22.8 µM. Further, in data set [2], the Activity entry is “Non-toxic”.
